Laboratory results: patent US20250186456A1, “PYRIMIDINE-FUSED CYCLIC COMPOUND AND PREPARATION METHOD AND USE THEREOF” (Genfleet Therapeutics (Shanghai) Inc., priority 2021, published 2025)

How the values were obtained:
Type in all cases: cell-based, human
[1] = tested on: AsPC-1 cells (KRAS G12D mutation); assay: Cell proliferation inhibition assay, 3D, CellTiter-Glo 3D, AsPC-1; details: Homo sapiens, ASPC1, 120 h, AsPC-1 3D sphere model, 5 days incubation
Excerpt: (§1) AsPC-1 was purchased from ATCC; catalog No: CRL-1682; AGS was purchased from ATCC; catalog No: CRL-1739; RPMI1640 was purchased from Gibco; catalog No: 11875-093 2235123; F12K was purchased from Gibco; catalog No: 21127-022; FBS was purchased from Gibco; catalog No: 10099-141C; trypsin (containing EDTA) was purchased from Gibco; catalog No: 25200-072; CellTiter Glo-3D was purchased from Progema; catalog No: G9683; 384-well sphere plates were purchased from Corning; catalog No: 3830; white opaque 384-well plates were purchased from Corning; catalog No: 3570; cell counters were purchased from CHEMOMETEC; model: NC-200; microplate reader was purchased from PerkinElmer; model: Envison;
(§2) AsPC-1 is an endogenous human pancreatic cancer cell containing KRAS^G12D mutation, cultured in RPMI-1640 medium containing 10% FBS; AGS is a human gastric cancer cell line containing KRAS^G12D, cultured in F-12K medium containing 10% FBS. Cells in the logarithmic growth phase were taken, digested with trypsin (containing EDTA), collected, and counted. 800 AsPC-1 cells/well or 400 AGS cells/well, respectively, were seeded in a 384-well sphere plate and cultured overnight at 5% CO2 to establish a 3D cell model. 1000X stock solutions of compounds at a 3.16-fold concentration gradient of were prepared using DMSO, diluted 100-fold into a 10X compound stock solution using the medium described above. The 10X compound stock solution was added to each cell on 2nd day after cell seeding at a final concentration of 1X and a DMSO content of 0.1%. DMSO was used as a control in the experiment, and the medium was used as blank. After the addition of the compounds, the cells were incubated for 5 days. 30 μl of CellTiter-Glo work solution was added to each well, mixed well, and incubated for 30 minutes. After standing at room temperature for 30 minutes, 40 μl of the mixed solution was transferred to an opaque 384-well plate with a white clear bottom. Luminescence chemiluminescence value was read by a microplate reader, and the cell proliferation inhibition rate (IR (%)=(RLU control-RLU compound)/(RLU control-RLU blank)×100%) was calculated. The gradiently diluted concentration of the compounds and corresponding cell proliferation inhibition rate were fitted using XLFit four-parameters method, and the IC50 value was calculated. […] The results of some exemplary compounds are shown in Table 2 (“−” represents untested).

AGS cells (KRAS G12D) = assay: Cell proliferation inhibition assay, 3D, CellTiter-Glo 3D, AGS; details: Homo sapiens, 120 h, AGS 3D sphere model, 5 days incubation
Excerpt: as §1, §2

[2] = tested on: p-ERK in AGS cells (KRAS G12D mutation); assay: Cell p-ERK assay (HTRF, Advance ERK phospho-T202/Y204 kit); details: Homo sapiens; AGS cells, 3 hours incubation with compound, HTRF; read-out: AGS p-ERK IC50
Procedure: AGS was purchased from ATCC; catalog No: CRL-1739; F12K was purchased from Gibco; catalog No: 21127-022; FBS was purchased from Gibco; catalog No: 10099-141C; trypsin (containing EDTA) was purchased from Gibco, catalog No: 25200-072; DMSO was purchased from VWRAMRESCO; catalog No: 0231-500 ML; 96-well cell culture plates were purchased from Corning; catalog No: 3599; white opaque 96-well plates were purchased from Cisbio; catalog No: 66PL96025; Advance ERK phospho-T202/Y204 kit was purchased from Cisbio; catalog No: 64AERPEH; cell counters were purchased from CHEMOMETEC; model No: NC-200; microplate reader was purchased from PerkinElmer; model No: Envison.
AGS is an endogenous human gastric adenocarcinoma cell line containing the KRAS^G12D mutation, cultured in F12K+10% FBS medium. On the first day of the experiment, cells in the logarithmic growth phase were taken, digested with trypsin (containing EDTA), collected, and counted. Approximately 20000 cells/well were seeded in a 96-well cell culture plate and cultured overnight in an incubator with 5% CO2. 1000X stock solutions of compounds at a 3.16-fold concentration gradient were prepared using DMSO, and diluted 200-fold into a 5X compound stock solution using the medium described above. The 5X compound stock solution was added to each cell culturing well the day after cell seeding at a final concentration of 1X and a DMSO content of 0.1%. DMSO was used as a control in the experiment. After the compound was added and the incubation was kept for 3 hours, the medium in the culture wells was removed. 50 μl of Cell lysis solution (from Advance ERK phospho-T202/Y204 kit, the same below) was added to each well, mixed well, and incubated for 30 minutes and then 16 μl of the mixed solution was transferred to a white opaque 96-well plate, another 16 μl of cell lysis solution was added to a well as a blank well. After transferring, 4 μl of p-ERK HTRF antibody mixture (from Advance ERK phospho-T202/Y204 kit) was added to each well. After incubation for 4 hours, HTRF fluorescence value (RLU) was read by a microplate reader, and p-ERK level inhibition rate (IR (%)=(RLU control-RLU compound)/(RLU control-RLU blank)×100%) of the compounds was calculated. The concentration of the compounds and corresponding cell p-ERK level inhibition rate were fitted using Prism 8 four-parameters method, and the IC50 value was calculated.

C#Cc1c(F)ccc2cc(O)cc(-c3nc4c5c(nc(OCC67CC(=C)CN6CC(=C)C7)nc5c3F)N3C[C@H]5CC[C@H](N5)[C@H]3CO4)c12 [Example Z380, 4-((5aS,6S,9R)-12-((2,6-Dimethylenetetrahydro-1H-Pyrrolizin-7a (5H)-Yl)Methoxy)-1-Fluoro-5a,6,7,8,9,10-Hexahydro-5H-4-Oxa-3,10a,11,13,14-Pentaaza-6,9-Methanonaphtho[1,8-Ab]Heptalen-2-Yl)-5-Ethynyl-6-Fluoronaphthalen-2-Ol] showed an IC50 [1] of 26.2 nM, an IC50 (AGS cells (KRAS G12D)) of 2.68 nM and an IC50 [2] of 0.78 nM.

In the case of C#Cc1cccc2cc(O)cc(-c3nc4c5c(nc(OC[C@@]67CCCN6C[C@H](F)C7)nc5c3F)N3C[C@H]5CC[C@H](N5)[C@H]3[C@H](C)O4)c12 [Example Z384, 5-ethynyl-4-((5S,5aS,6S,9R)-1-fluoro-12-(((2R,7aS)-2-fluorotetrahydro-1H-pyrrolizin-7a (5H)-yl)methoxy)-5-methyl-5a,6,7,8,9,10-hexahydro-5H-4-oxa-3,10a, 11,13,14-pentaaza-6,9-methanonaphtho[1,8-ab]heptalen-2-yl) naphthalen-2-ol], the IC50 [1] is reported as 7.34 nM, the IC50 (AGS cells (KRAS G12D)) is reported as 1.5 nM and the IC50 [2] is reported as 0.65 nM.

For C#Cc1cccc2cc(O)cc(-c3nc4c5c(nc(OC[C@@]67CCCN6C[C@H](F)C7)nc5c3F)N3C[C@H]5CC[C@H](N5)[C@H]3[C@H](CC)O4)c12 [Example Z386, 4-((5S,5aS,6S,9R)-5-Ethyl-1-Fluoro-12-(((2R,7aS)-2-Fluorotetrahydro-1H-Pyrrolizin-7a (5H)-Yl)Methoxy)-5a,6,7,8,9,10-Hexahydro-5H-4-Oxa-3,10a,11,13,14-Pentaaza-6,9-Methanonaphtho[1,8-Ab]Heptalen-2-Yl)-5-Ethynylnaphthalen-2-Ol], the IC50 [1] was 14.7 nM, the IC50 (AGS cells (KRAS G12D)) was 2.4 nM and the IC50 [2] was 0.76 nM.

Work on C#Cc1cccc2cccc(-c3nc4c5c(nc(OC[C@@]67CCCN6C[C@H](F)C7)nc5c3F)N3C[C@H]5CC[C@H](N5)[C@H]3[C@H](CC)O4)c12 [Example Z387, (5S,5aS,6S,9R)-5-ethyl-2-(8-ethynylnaphthalen-1-yl)-1-fluoro-12-(((2R,7aS)-2-fluorotetrahydro-1H-pyrrolizin-7a (5H)-yl)methoxy)-5a,6,7,8,9,10-hexahydro-5H-4-oxa-3,10a, 11,13,14-pentaaza-6,9-methanonaphtho[1,8-ab]heptalene] yielded an IC50 [1] of 202 nM, an IC50 (AGS cells (KRAS G12D)) of 73.3 nM and an IC50 [2] of 50.2 nM.

C#Cc1c(F)ccc2cccc(-c3nc4c5c(nc(OCC67CC(=C)CN6CC(=C)C7)nc5c3F)N3C[C@H]5CC[C@H](N5)[C@H]3[C@H](C)O4)c12 [Example Z388, (5S,5aS,6S,9R)-12-((2,6-dimethylenetetrahydro-1H-pyrrolizin-7a (5H)-yl)methoxy)-2-(8-ethynyl-7-fluoronaphthalen-1-yl)-1-fluoro-5-methyl-5a,6,7,8,9,10-hexahydro-5H-4-oxa-3,10a, 11, 13,14-pentaaza-6,9-methanonaphtho[1,8-ab]heptalene] showed an IC50 [1] of 191 nM, an IC50 (AGS cells (KRAS G12D)) of 53.1 nM and an IC50 [2] of 17.9 nM.

In the case of C#Cc1cc(F)cc2cccc(-c3nc4c5c(nc(OCC67CC(=C)CN6CC(=C)C7)nc5c3F)N3C[C@H]5CC[C@H](N5)[C@H]3[C@H](C)O4)c12 [Example Z550, (5S,5aS,6S,9R)-12-((2,6-dimethylenetetrahydro-1H-pyrrolizin-7a (5H)-yl)methoxy)-2-(8-ethynyl-6-fluoronaphthalen-1-yl)-1-fluoro-5-methyl-5a,6,7,8,9,10-hexahydro-5H-4-oxa-3,10a, 11,13,14-pentaaza-6,9-methanonaphtho[1,8-ab]heptalene], the IC50 [1] is reported as 394 nM, the IC50 (AGS cells (KRAS G12D)) is reported as 109 nM and the IC50 [2] is reported as 91.2 nM.

Work on C#Cc1cccc2cccc(-c3nc4c5c(nc(OCC67CC(=C)CN6CC(=C)C7)nc5c3F)N3C[C@H]5CC[C@H](N5)[C@H]3[C@H](C)O4)c12 [Example Z551, (58,5aS,6S,9R)-12-((2,6-dimethylenetetrahydro-1H-pyrrolizin-7a (5H)-yl)methoxy)-2-(8-ethynylnaphthalen-1-yl)-1-fluoro-5-methyl-5a,6,7,8,9,10-hexahydro-5H-4-oxa-3,10a,11,13,14-pentaaza-6,9-methanonaphtho[1,8-ab]heptalene] yielded an IC50 [1] of 170 nM, an IC50 (AGS cells (KRAS G12D)) of 45.4 nM and an IC50 [2] of 61 nM.

C#Cc1c(F)ccc2cc(O)cc(-c3nc4c5c(nc(OC[C@@]67CCCN6C[C@H](F)C7)nc5c3F)N3C[C@H]5CC[C@H](N5)[C@H]3[C@H](C)O4)c12 [Example Z552, 5-ethynyl-6-fluoro-4-((5S,5aS,6S,9R)-1-fluoro-12-(((2R,7aS)-2-fluorotetrahydro-1H-pyrrolizin-7a (5H)-yl)methoxy)-5-methyl-5a,6,7,8,9,10-hexahydro-5H-4-oxa-3,10a,11,13,14-pentaaza-6,9-methanonaphtho[1,8-ab]heptalen-2-yl) naphthalen-2-ol] was tested, and the IC50 [1] was 5.77 nM, the IC50 (AGS cells (KRAS G12D)) was 0.53 nM and the IC50 [2] was 0.67 nM.

With C#Cc1c(F)ccc2cc(O)cc(-c3nc4c5c(nc(OCC67CC(=C)CN6CC(=C)C7)nc5c3F)N3C[C@H]5CC[C@H](N5)[C@H]3[C@H](C)O4)c12 [Example Z553, 4-((5S,5aS,6S,9R)-12-((2,6-dimethylenetetrahydro-1H-pyrrolizin-7a (5H)-yl)methoxy)-1-fluoro-5-methyl-5a,6,7,8,9,10-hexahydro-5H-4-oxa-3,10a, 11,13,14-pentaaza-6,9-methanonaphtho[1,8-ab]heptalen-2-yl)-5-ethynyl-6-fluoronaphthalen-2-ol] the IC50 [1] was 9.13 nM, the IC50 (AGS cells (KRAS G12D)) was 0.53 nM and the IC50 [2] was 0.48 nM.

With C#Cc1c(F)ccc2cccc(-c3nc4c5c(nc(OCC67CCCN6CC(=C)C7)nc5c3F)N3C[C@H]5CC[C@H](N5)[C@H]3[C@H](C)O4)c12 (stereo partly drawn) [Example Z590, (5S,5aS,6S,9R)-2-(8-ethynyl-7-fluoronaphthalen-1-yl)-1-fluoro-5-methyl-12-((2-methylenetetrahydro-1H-pyrrolizin-7a (5H)-yl)methoxy)-5a,6,7,8,9,10-hexahydro-5H-4-oxa-3,10a,11,13,14-pentaaza-6,9-methanonaphtho[1,8-ab]heptalene] the IC50 [1] was 114 nM, the IC50 (AGS cells (KRAS G12D)) was 17.3 nM and the IC50 [2] was 7.11 nM.

C#Cc1c(Cl)ccc2cccc(-c3nc4c5c(nc(OCC67CCCN6CC(=C)C7)nc5c3F)N3C[C@H]5CC[C@H](N5)[C@H]3[C@H](C)O4)c12 (stereo partly drawn) [Example Z593, (5S,5aS,6S,9R)-2-(7-chloro-8-ethynylnaphthalen-1-yl)-1-fluoro-5-methyl-12-((2-methylenetetrahydro-1H-pyrrolizin-7a (5H)-yl)methoxy)-5a,6,7,8,9,10-hexahydro-5H-4-oxa-3,10a, 11,13, 14-pentaaza-6,9-methanonaphtho[1,8-ab]heptalene] was tested, and the IC50 [1] was 78.8 nM, the IC50 (AGS cells (KRAS G12D)) was 35.4 nM and the IC50 [2] was 29 nM.
